ChEMBL document CHEMBL1201862, “PubChem BioAssay data set” (2004)
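Cells were grown in 96-well plates and exposed to each compound for 48 hours at five concentrations; endpoints were interpolated linearly between bracketing concentrations, or set to the highest concentration if not reached. GI50 marks 50% less growth.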 Active and inactive are the calls of the source. No stated cut-off is given here; in the data, active = GI50 up to about 1.1 µM and inactive = higher.

Key:
Test in all cases: inhibition of tumour cell growth, NCI panel, 48 h
CAKI-1 = test system: CAKI-1
COLO 205 = test system: COLO 205
HCT-116 = test system: HCT-116
HOP-62 = test system: HOP-62
HT-29 = test system: HT-29
Hs-578T = test system: Hs-578T
IGROV-1 = test system: IGROV-1
LOX IMVI = test system: LOX IMVI
MCF7 = test system: MCF7
MDA-MB-435 = test system: MDA-MB-435
MDA-N = test system: MDA-N
NCI-H23 = test system: NCI-H23
RPMI-8226 = test system: RPMI-8226
SF-295 = test system: SF-295
SK-MEL-2 = test system: SK-MEL-2
SK-OV-3 = test system: SK-OV-3
SN12C = test system: SN12C
SNB-19 = test system: SNB-19
SNB-75 = test system: SNB-75
U-251 = test system: U-251

| SMILES | GI50 (CAKI-1) | GI50 (COLO 205) | GI50 (HCT-116) | GI50 (HOP-62) | GI50 (HT-29) | GI50 (Hs-578T) | GI50 (IGROV-1) | GI50 (LOX IMVI) | GI50 (MCF7) | GI50 (MDA-MB-435) | GI50 (MDA-N) | GI50 (NCI-H23) | GI50 (RPMI-8226) | GI50 (SF-295) | GI50 (SK-MEL-2) | GI50 (SK-OV-3) | GI50 (SN12C) | GI50 (SNB-19) | GI50 (SNB-75) | GI50 (U-251) |
| --- | --- | --- | --- | --- | --- | --- | --- | --- | --- | --- | --- | --- | --- | --- | --- | --- | --- | --- | --- | --- |
| O=[As]O | > 56.1 µM (inactive) | > 90.6 µM (inactive) | > 93.3 µM (inactive) | > 100 µM (inactive) | > 66.2 µM (inactive) | > 100 µM (inactive) | 28 µM (inactive) | > 47.9 µM (inactive) | 28.6 µM (inactive) | > 100 µM (inactive) | > 100 µM (inactive) | > 48.3 µM (inactive) | > 40.5 µM (inactive) | > 81.1 µM (inactive) | > 59.6 µM (inactive) | > 100 µM (inactive) | > 48.4 µM (inactive) | > 67.5 µM (inactive) | > 51.1 µM (inactive) | 23.2 µM (inactive) |
| COc1ccc(C2C(C#N)=C(S)N(C3OC(COC(C)=O)C(OC(C)=O)C(OC(C)=O)C3OC(C)=O)C(C)=C2C(C)=O)cc1 (stereo not given) | > 100 µM (inactive) | 58.2 µM (inactive) | 65 µM (inactive) | > 100 µM (inactive) | 71.3 µM (inactive) | 59.3 µM (inactive) | > 100 µM (inactive) | > 100 µM (inactive) | > 100 µM (inactive) | 66.4 µM (inactive) | 46.1 µM (inactive) | > 100 µM (inactive) | 73.1 µM (inactive) | > 100 µM (inactive) | > 100 µM (inactive) | > 100 µM (inactive) | > 100 µM (inactive) | > 100 µM (inactive) | 26.4 µM (inactive) | > 100 µM (inactive) |
| O=c1[nH]c2c(c(=O)[nH]1)SSC2 | 18.9 µM (inactive) | 21.4 µM (inactive) | 3.14 µM (inactive) | 10.6 µM (inactive) | 19.6 µM (inactive) | 24.2 µM (inactive) | 22.3 µM (inactive) | 1.34 µM (inactive) | 17.4 µM (inactive) | 2.04 µM (inactive) | 1.66 µM (inactive) | 12.7 µM (inactive) | 0.838 µM (active) | 18.5 µM (inactive) | 6.44 µM (inactive) | 21.4 µM (inactive) | 2.75 µM (inactive) | 25 µM (inactive) | 17.1 µM (inactive) | 11.8 µM (inactive) |
| Nc1cc2c3c(c1)Oc1cc(N)cc4c1C3c1c(cc(N)cc1O4)O2 | 14.4 µM (inactive) | 16.1 µM (inactive) | 21.7 µM (inactive) | 25.7 µM (inactive) | 25.3 µM (inactive) | 24.2 µM (inactive) | 10.4 µM (inactive) | 17.9 µM (inactive) | 24.8 µM (inactive) | 29 µM (inactive) | 17.8 µM (inactive) | 33 µM (inactive) | 14.7 µM (inactive) | 26.2 µM (inactive) | 28.9 µM (inactive) | 46.5 µM (inactive) | 16.7 µM (inactive) | 37.5 µM (inactive) | 19.3 µM (inactive) | 43.1 µM (inactive) |
| CC(=O)Nc1ccc2cc3c(nc2n1)c1cccnc1n3S(=O)(=O)c1ccccc1 | > 100 µM (inactive) | > 100 µM (inactive) | 1.36 µM (inactive) | > 100 µM (inactive) | > 100 µM (inactive) | > 100 µM (inactive) | > 100 µM (inactive) | 2.66 µM (inactive) | > 100 µM (inactive) | > 100 µM (inactive) | > 100 µM (inactive) | 10.5 µM (inactive) | 19.1 µM (inactive) | > 100 µM (inactive) | > 100 µM (inactive) | > 100 µM (inactive) | > 100 µM (inactive) | > 100 µM (inactive) | 59.6 µM (inactive) | > 100 µM (inactive) |
| Cc1cc(C)n(-c2nc3ccccc3c(=O)[nH]2)n1 | 3.02 µM (inactive) | 2.43 µM (inactive) | 1.88 µM (inactive) | 2.29 µM (inactive) | 2.74 µM (inactive) | 24.8 µM (inactive) | 1.5 µM (inactive) | 1.41 µM (inactive) | 3.78 µM (inactive) | 1.86 µM (inactive) | 32.6 µM (inactive) | 7.96 µM (inactive) | 3.92 µM (inactive) | 2.1 µM (inactive) | 8.47 µM (inactive) | 8.65 µM (inactive) | 4.34 µM (inactive) | 11.9 µM (inactive) | 14.1 µM (inactive) | 3.24 µM (inactive) |
| O=C(n1c(=O)n(-c2ccc([N+](=O)[O-])cc2)c(=O)n1C(=O)C(Cl)(Cl)Cl)C(Cl)(Cl)Cl | > 100 µM (inactive) | > 100 µM (inactive) | > 100 µM (inactive) | > 100 µM (inactive) | > 100 µM (inactive) | > 100 µM (inactive) | > 100 µM (inactive) | > 100 µM (inactive) | 87.3 µM (inactive) | > 100 µM (inactive) | > 100 µM (inactive) | > 100 µM (inactive) | > 100 µM (inactive) | > 100 µM (inactive) | > 100 µM (inactive) | > 100 µM (inactive) | > 100 µM (inactive) | > 100 µM (inactive) | > 100 µM (inactive) | > 100 µM (inactive) |
